Reference: patent publication US5571820A, “Heterocyclic compound” (Taisho Pharmaceutical Co., Ltd., priority 1992, dated 1996)

Key:
intestinal transit = experiment: Activity on intestinal transit in mice (carbon powder); type: in vivo, male ICR mice; conditions: for Intestinal transit (%): moving rate calculated for control animal
Procedure: Experiment 5. Activity on Intestinal Transit in Mice
The activity was determined by a modification of the method described in YAKURI-TO-CHIRYO, 10, 195, 1982.
Male ICR mice weighing 20 to 30 g were used which were deprived of food for 24 hours. A suspension containing 5% carbon powder gum arabic was orally administered to the animal in a dose of 1 ml 15 minutes after subcutaneous administration or 30 minutes after oral administration, of drugs. The intestinal tract was removed 20 minutes after. The entire length of the intestinal tract and the distance of the carbon powders moved were measured, and a moving rate was calculated for control animal.

[1] = tested on: gastrointestinal tract motor action; experiment: Activity on gastrointestinal motor in dogs (strain gauge force transducers, conscious); type: in vivo, Beagle dogs of both sexes; conditions: for Motility index (% of value prior to administration): gastric motor action after feeding
Procedure: Experiment 3. Activity on Gastrointestinal Motor in Dogs The activity was determined by a modification of the method described in Gastroenterologia Japonica, 12, 275, 1977. Beagle dogs of both sexes weighing 9 to 15 kg were anesthetized with sodium pentobarbital and strain gauge force transducers were sutured on five (5) portions, i.e., for determining antral, duodenum, jejunal, ileal and colonal motor responses. A cannula for administering a drug was mounted persistently into the jugular vein. After recovery of the surgery, motor responses at those portions on the gastrointestinal tract in both during a fasting period and after feeding were determined in the conscious dogs. The compound of the present invention was administered by dissolving the compound in 5% lactate saline aqueous solution for intravenous injection and for oral administration by suspending the compound in 5% gum arabic aqueous solution. The motor index is shown in terms of a proportion (%) of a mean value calculated for 15 minutes to a value prior to administration (0 minute). The value for 0 minute was made a mean value for 30 minutes prior to the administration. Results

serotonin 4 receptor = molecular target: T1, serotonin 4 receptor (Cavia porcellus, UniProt O70528); experiment: Serotonin 4 receptor stimulating activity: twitch responses of electrically stimulated ileum longitudinal muscle strips; type: cell-based, guinea pig (Hartley)
T1 construct: from tissue; host or cells: ileum longitudinal muscle strips of Hartley guinea pig
T1 sequence (O70528 whole entry): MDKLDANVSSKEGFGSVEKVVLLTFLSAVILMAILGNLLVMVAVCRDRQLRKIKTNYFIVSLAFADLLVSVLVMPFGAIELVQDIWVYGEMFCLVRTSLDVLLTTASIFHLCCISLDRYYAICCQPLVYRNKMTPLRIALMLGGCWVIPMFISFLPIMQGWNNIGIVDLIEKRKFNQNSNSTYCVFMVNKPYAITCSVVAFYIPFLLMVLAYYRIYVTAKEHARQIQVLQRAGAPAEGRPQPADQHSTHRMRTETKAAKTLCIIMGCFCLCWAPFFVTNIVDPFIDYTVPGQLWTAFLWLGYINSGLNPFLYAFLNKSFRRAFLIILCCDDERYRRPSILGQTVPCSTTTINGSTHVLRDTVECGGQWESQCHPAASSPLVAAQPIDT
Description: Experiment 1. Serotonin 4 Receptor Stimulating Activity Compounds Tested
Twitch responses were examined in longitudinal muscle strips of guinea pig by a modification of the method described in The Journal of Pharmacology and Experimental Therapeutics, 252, 1378, 1990.
From Hartley guinea pigs, a section of ileum 25 cm in length and proximal to the ileocecal junction was removed. The longitudinal muscle strips obtained from two segments of ileum about 4 cm each in length were used for this experiment. The longitudinal muscle strips were suspended in Krebs' solution at 32° to 34° C. and bubbled with 95% O2 and 5% CO2 under a load of about 0.8 g. Twitch responses were recorded under electrical stimulation of 0.2 Hz, 1 msec pulse duration, using force displacement transducers. The longitudinal muscle strips, stimulated at supramaximal voltage, were allowed to equilibrate for about an hour. […] The test was carried out by exposing the strips to cumulative additions of agonist at least at 45-minute intervals.

gastric emptying = experiment: Activity on gastric emptying in rat (glass spheroids); type: in vivo, male Wistar rats
Procedure: Experiment 4. Activity on Gastric Emptying in Rat The activity was investigated by a modification of the method described in British Journal of Pharmacology, 91, 263, 1987. Male Wistar rats weighing 170 to 220 g were used which were deprived of food for 24 hours. Glass spheroids of 500 mg/ml were orally administered to the animal in a dose of 1 ml 30 minutes after subcutaneous administration or 60 minutes after oral administration, of drugs. The glass spheroids remained in the stomach were recovered and their weight was measured to determine gastric emptying to control motility. The compound of the present invention was suspended in physiological saline and the resulting suspension was administered.

gastric motility = experiment: Activity on gastric motility in rat (balloon in stomach, conscious); type: in vivo, male Wistar rats; conditions: for Contraction frequency (% of value prior to administration) / Motility index (% of value prior to administration): 1 mg/kg i.p.
Procedure: Experiment 2. Activity on Gastric Motility in Rat Male Wistar rats weighing 250 to 350 g were fasted for 18 hours and then provided for experiment. The abdominal cavity was opened under ether anesthesia and a rubber balloon was inserted into the stomach via the forestomach. A cannula for administering a drug was put in the peritoneal cavity. After recovery from the anesthesia, the balloon was connected to low pressure transducers to record gastric motility in the conscious state. The compound of the present invention was suspended in physiological saline and the suspension was intraperitoneally administered. Contraction frequency and motility index are shown in terms of a proportion (%) of a mean value calculated for 15 minutes to a value prior to administration (0 minute). The value for 0 minute was made a mean value for 30 minutes prior to the administration.

[2] = Toxicity on consecutive 14-day oral administration in rat; type: in vivo, male Wistar rats
Procedure: Experiment 6. Toxicity on Consecutive 14-day Oral Administration in Rat
Toxicity of consecutive oral administration was investigated by oral administration of male Wistar rats of 5 weeks age, weighing 124 to 140 g and seven rats forming one group, orally received the compound of the present invention for 14 consecutive days in a daily dose of 100 mg/kg or 250 mg/kg once a day. During the course of administration, general conditions were observed and the body weight was measured. At the time when the administration was completed, hematological inspection, hematochemical inspection, urinalysis, anatomical finding, organ weight measurement and pathohistological inspection were performed.

[3] = 10 min after administration, N = 4
[4] = 30 min after administration, N = 4
[5] = 40 min after administration, N = 4
[6] = 50 min after administration, N = 4
[7] = 60 min after administration, N = 4
[8] = 250 mg/kg daily, oral, 14 consecutive days

Compound: CC(C)n1c(=O)c(C(=O)N[C@H]2C[C@H]3CC[C@@H](C2)N3C)cc2ccccc21 [Compound 1, endo-N-(8-methyl-8-azabicyclo[3.2.1]oct-3-yl)-1-isopropyl-2(1H)-quinolone-3-carboxamide]
- effect on intestinal transit (intestinal transit; oral and subcutaneous): accelerated the intestinal transit
- Intestinal transit (%) (intestinal transit; p.o. 1 mg/kg, 5 cases): 100.6%
- Intestinal transit (%) (intestinal transit; p.o. 3 mg/kg, 5 cases): 121.4%
- Intestinal transit (%) (intestinal transit; p.o. 10 mg/kg, 6 cases): 120.4%
- Intestinal transit (%) (intestinal transit; s.c. 1 mg/kg, 5 cases): 116.6%
- Intestinal transit (%) (intestinal transit; s.c. 3 mg/kg, 4 cases): 117.8%
- Intestinal transit (%) (intestinal transit; s.c. 10 mg/kg, 6 cases, **: P < 0.01): 138.3%
- Motility index (% of value prior to administration) ([1]; 0.3 mg/kg intravenous, 15 min, N = 3): 371.4%
- Motility index (% of value prior to administration) ([1]; 0.3 mg/kg intravenous, 30 min, N = 3): 322.6%
- Motility index (% of value prior to administration) ([1]; 0.3 mg/kg intravenous, 45 min, N = 3, *: P < 0.05): 282.3%
- Motility index (% of value prior to administration) ([1]; 0.3 mg/kg intravenous, 60 min, N = 3, *: P < 0.05): 261.1%
- Motility index (% of value prior to administration) ([1]; 0.3 mg/kg intravenous, 75 min, N = 3, **: P < 0.01): 281.9%
- Motility index (% of value prior to administration) ([1]; 0.3 mg/kg intravenous, 90 min, N = 3, *: P < 0.05): 262.1%
- Motility index (% of value prior to administration) ([1]; 0.3 mg/kg intravenous, 105 min, N = 3, *: P < 0.05): 242.9%
- Motility index (% of value prior to administration) ([1]; 0.3 mg/kg intravenous, 120 min, N = 3): 195.2%
- Motility index (% of value prior to administration) ([1]; 1 mg/kg oral, 15 min, N = 3): 116.4%
- Motility index (% of value prior to administration) ([1]; 1 mg/kg oral, 30 min, N = 3): 193.5%
- Motility index (% of value prior to administration) ([1]; 1 mg/kg oral, 45 min, N = 3, *: P < 0.05): 191.4%
- Motility index (% of value prior to administration) ([1]; 1 mg/kg oral, 60 min, N = 3, **: P < 0.01): 206.9%
- Motility index (% of value prior to administration) ([1]; 1 mg/kg oral, 75 min, N = 3, *: P < 0.05): 202.2%
- Motility index (% of value prior to administration) ([1]; 1 mg/kg oral, 90 min, N = 3, *: P < 0.05): 192.5%
- Motility index (% of value prior to administration) ([1]; 1 mg/kg oral, 105 min, N = 3, *: P < 0.05): 207.3%
- Motility index (% of value prior to administration) ([1]; 1 mg/kg oral, 120 min, N = 3): 194.9%
- Motility index (% of value prior to administration) ([1]; 1 mg/kg oral, 180 min, N = 3): 195.8%
- Motility index (% of value prior to administration) ([1]; 1 mg/kg oral, 210 min, N = 3): 176.2%
- Motility index (% of value prior to administration) ([1]; 1 mg/kg oral, 240 min, N = 3): 182.8%
- effect on the motor action of the gastrointestinal tract ([1]; intravenous and oral, both during fasting period and after feeding): showed acceleration on the motor action of the gastrointestinal tract
- EC50 (serotonin 4 receptor): 21.4 nM
- serotonin 4 receptor stimulating activity, comparison with Compounds 2 to 7 (serotonin 4 receptor; in words, from Table 2): much more potent serotonin 4 receptor stimulating activity than any of the other compounds
- effect on gastric emptying (gastric emptying; oral and subcutaneous): dose-dependently accelerated gastric emptying
- Residual rate in stomach (%) (gastric emptying; p.o. 0.03 mg/kg, 5 cases): 67.3%
- Residual rate in stomach (%) (gastric emptying; p.o. 0.3 mg/kg, 5 cases): 64.5%
- Residual rate in stomach (%) (gastric emptying; p.o. 3.0 mg/kg, 6 cases): 42.0%
- Residual rate in stomach (%) (gastric emptying; s.c. 0.1 mg/kg, 5 cases): 51.8%
- Residual rate in stomach (%) (gastric emptying; s.c. 1.0 mg/kg, 5 cases): 50.3%
- Residual rate in stomach (%) (gastric emptying; s.c. 10.0 mg/kg, 4 cases): 36.8%
- Contraction frequency (% of value prior to administration) (gastric motility; [3]): 182.3%
- Motility index (% of value prior to administration) (gastric motility; [3]): 169.3%
- Motility index (% of value prior to administration) (gastric motility; 20 min after administration, N = 4): 188.1%
- Contraction frequency (% of value prior to administration) (gastric motility; 20 min after administration, N = 4, *: P < 0.05): 243.5%
- Contraction frequency (% of value prior to administration) (gastric motility; [4]): 187.0%
- Motility index (% of value prior to administration) (gastric motility; [4]): 144.2%
- Contraction frequency (% of value prior to administration) (gastric motility; [5]): 134.7%
- Motility index (% of value prior to administration) (gastric motility; [5]): 83.3%
- Contraction frequency (% of value prior to administration) (gastric motility; [6]): 134.9%
- Motility index (% of value prior to administration) (gastric motility; [6]): 88.8%
- Contraction frequency (% of value prior to administration) (gastric motility; [7]): 141.6%
- Motility index (% of value prior to administration) (gastric motility; [7]): 108.8%
- effect on gastric motility (gastric motility; 1 mg/kg, i.p.): accelerated the gastric motility
- toxic change ([2]; 100 mg/kg daily, oral, 14 consecutive days): no toxic change was noted
- body weight [2, 8]: prevention of body weight increase was noted
- secondary changes in organs (liver, thymus, adrenogenital organ, adrenal, etc.) [2, 8]: secondary changes accompanied by aggravation of general conditions were observed in the liver, thymus, adrenogenital organ, adrenal, etc.
- overall toxicity ([2]; 14-day oral, taking into account pharmacological activities): the toxicity is reasonably assumed to be weak
